What all share (assay): growth of human tumour cells (NCI), 48 h
The subject of assay [1] is ACHN.
Assay [2] concerns COLO 205.
The test system of assay [3] is EKVX.
Assay [4] relates to HCC 2998.
The subject of assay [5] is HCT-116.
Assay [6] concerns IGROV-1.
In assay [7] the test system is LXFL 529.
In assay [8] the test system is MCF7.
Assay [9] has as its system MDA-MB-231.
The subject of assay [10] is NCI-H226.
Assay [11] has as its system NCI-H23.
In assay [12] the test system is NCI-H460.
Assay [13] has as its system NCI-H522.
The test system of assay [14] is OVCAR-3.
The subject of assay [15] is RPMI-8226.
Assay [16] relates to SF-295.
Assay [17] has as its system SK-MEL-5.
The subject of assay [18] is SN12C.
Assay [19] concerns SW-620.
Assay [20] has as its system TK-10.

“And” between values parts separate entries of the source, which are not always exact repeats. Equal entries are not always repeated.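 Interpolation was linear, between the two tested concentrations surrounding the appropriate level; five concentrations were tested over 48 hours in 96-well plates. GI50 = concentration required for 50% inhibition of growth.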 The source made the active and inactive calls. Rule as the data show it: active = GI50 up to about 1.1 µM and inactive = higher. Some results are limits rather than exact numbers.

Turning to `COc1cc2c(c(OC)c1OC)-c1ccc(SC)c(=O)cc1[C@@H](NC(=O)C(F)(F)F)CC2`, the GI50 in [1] was < 0.01 µM (active); in assay [2], < 0.01 µM (active); in assay [3] it was 13.8 µM (inactive); in assay [4] it was < 0.01 µM (active); in assay [5], < 0.01 µM (active); in assay [6], < 0.01 µM (active). Further, the GI50 is < 0.01 µM (active) in assay [7]; < 10 nM (active) in assay [8]; < 0.01 µM (active) in assay [9]; 0.199 µM (active) in assay [10]; < 0.01 µM (active) in [11]; < 0.01 µM (active) in [12]. For the same compound, the GI50 in [13] was < 0.01 µM (active); in assay [14], < 0.0158 µM (active); in assay [15], < 0.01 µM (active); in [16], < 0.01 µM (active); in assay [17], < 0.01 µM (active); in [18] it was < 0.01 µM (active). In addition, the GI50 in [19] was < 0.01 µM (active); in assay [20], 8.63 µM (inactive).

`COc1ccc2nc3ccccc3c(NCCCCN(C)CCCl)c2c1`: the GI50 in assay [1] was < 0.0174 µM (active); in assay [2], < 0.01 µM (active); in assay [3], 0.393 µM (active); in assay [4], 0.0893 µM (active); in [5], 0.0199 µM (active); in [6], 0.0408 µM (active). For the same compound, the GI50 in [7] was < 0.013 µM (active); in assay [8], < 10 nM (active); in assay [9], 0.144 µM (active); in assay [10], 0.0692 µM (active); in assay [11], 0.0513 µM (active); in [12] it was 0.014 µM (active). In addition, the GI50 in assay [13] was < 0.0143 µM (active); in assay [14], 0.0392 µM (active); in assay [15] it was < 0.01 µM (active); in assay [16] it was 0.0652 µM (active); in assay [17], 0.0773 µM (active); in assay [18], 0.0184 µM (active). For the same compound, the GI50 in assay [19] is 0.0151 µM (active); in assay [20] it was 0.638 µM (active).

On to `O=C(Nc1ccc(C(F)(F)F)cc1[N+](=O)[O-])C(=O)C1NC(=S)NC1=O` (configuration not stated), for which the GI50 in [1] is > 100 µM (inactive); in assay [2], 13.5 µM (inactive); in [3], 4.86 µM (inactive); in assay [4], > 100 µM (inactive); in assay [5], > 100 µM (inactive); in [6], > 100 µM (inactive). Besides, the GI50 was > 100 µM (inactive) in assay [7]; 11 µM (inactive) in assay [10]; > 100 µM (inactive) in [11]; > 100 µM (inactive) in assay [12]; > 100 µM (inactive) in [13]; > 100 µM (inactive) in [14]. In addition, the GI50 is > 100 µM (inactive) in [15]; > 100 µM (inactive) in [16]; > 100 µM (inactive) in [17]; 2.26 µM (inactive) in assay [18]; > 100 µM (inactive) in assay [19]; > 100 µM (inactive) in assay [20].

As to `C[N+](C)(C)CC(=O)N/N=C(\C(=O)NC1=C(Cl)C(=O)c2ccccc2C1=O)C(C#N)c1csc(-c2ccc([N+](=O)[O-])cc2)n1` (configuration not stated), the GI50 in assay [1] was > 100 µM (inactive); in assay [2], > 100 µM (inactive); in assay [3], 48.2 µM (inactive); in [4] it was > 100 µM (inactive); in assay [5], > 100 µM (inactive); in assay [6], > 100 µM (inactive). Besides, the GI50 in [7], in assay [10], in assay [11], in assay [12], in [13] and in [14] was > 100 µM (inactive) throughout. Moreover, the GI50 in assay [15], in [16], in assay [17], in assay [18], in assay [19] and in assay [20] was > 100 µM (inactive) throughout.

On to `C[C@H]1CCC/C=C/[C@@H]2C[C@H](O)C[C@H]2[C@H](O)/C=C/C(=O)O1` [BREFELDIN A], for which the GI50 in assay [2] is 14.3 nM (active) and 16.4 nM (active); in [5], 18.2 nM (active) and 23.3 nM (active); in assay [7], 0.00877 µM (active); in assay [8], < 16.4 nM (active) and 26.3 nM (active); in assay [10] it was 19.9 nM (active) and 25.8 nM (active); in assay [11], 12.5 nM (active) and 25.1 nM (active). Further, the GI50 in assay [14] was < 18.2 nM (active) and 30.5 nM (active); in [17], < 10 nM (active) and 5.83 nM (active); in assay [19], 32.7 nM (active) and < 17.4 nM (active); in assay [20] it was 36.7 nM (active) and 40.8 nM (active).

Take `CN/N=C(/CC(=O)c1sc(NNC(C)=O)nc1C)C(=O)Nc1ccc(OC)cc1OC`: the GI50 in assay [1] was > 100 µM (inactive); in assay [2], > 100 µM (inactive); in [3], 59.7 µM (inactive); in assay [4] it was > 100 µM (inactive); in assay [5], > 100 µM (inactive); in assay [6] it was > 100 µM (inactive). Further, the GI50 in [7], in assay [10], in [11], in assay [12], in assay [13] and in assay [14] was > 100 µM (inactive) each time. Further, the GI50 in assay [15], in [16], in assay [17], in assay [18], in [19] and in assay [20] was > 100 µM (inactive) throughout.

With `O=C(NCc1ccc2ccc3cccnc3c2n1)c1ccc[n+](Cc2ccccc2)c1`, the GI50 in assay [1], in [2], in assay [3], in assay [4], in assay [5] and in assay [6] was > 100 µM (inactive) each time. Moreover, the GI50 was 67.6 µM (inactive) in [7]; > 100 µM (inactive) in assay [10]; > 100 µM (inactive) in [11]; > 100 µM (inactive) in [12]; > 100 µM (inactive) in assay [13]; 55.6 µM (inactive) in assay [14]. In addition, the GI50 is 54.8 µM (inactive) in [15]; > 100 µM (inactive) in assay [16]; 74 µM (inactive) in assay [17]; > 100 µM (inactive) in assay [18]; > 100 µM (inactive) in assay [19]; > 100 µM (inactive) in assay [20].

Source of the values: ChEMBL document CHEMBL1201862, “PubChem BioAssay data set” (2004).
